Experimental data from US8143382B2, “Pyrazole disazo dye and ink containing the dye” (Mitsubishi Chemical Corporation, priority 2007, dated 2012).

Test: Absorption spectrum and colour of the n-decane solution of the dye
Type: physicochemical
Conditions: decane, at the absorption maximum wavelength
Description: (§1) The dye was added to n-decane, and this mixture was subjected to an ultrasonic treatment at 30° C. and ordinary pressure. When the dye completely dissolved, an additional amount of the dye was added so that the dye partly remained undissolved. The mixture thus treated was allowed to stand at room temperature (25° C.) for 12 hours and then subjected to centrifugal filtration with a 0.1-μm filter to obtain a saturated solution of the dye. This solution was diluted to an appropriate concentration and examined for absorption spectrum.
(§2) From values of absorption maximum wavelength in the wavelength range of 350-800 nm, gram extinction coefficient, and molar extinction coefficient which had been determined beforehand at an appropriate concentration and from the dilution ratio and the absorption spectrum of the diluted solution, the solubility (% by weight) and the product of the molar extinction coefficient at the absorption maximum wavelength and the molar concentration of the saturated solution were calculated.

Row | Gram extinction coefficient [cm^2g^−1] | SMILES
1 | 61000 | CCCCc1ccc(N=Nc2ccc(N=Nc3c(CCCC)nn(C(C)(C)C)c3O)cc2)cc1 [1-2]
2 | 97000 | Cc1nn(-c2ccccc2)c(O)c1N=Nc1ccc(N=Nc2ccccc2)cc1 [compound 1, reference compound]
3 | 69000 | CCc1nn(C(C)(C)C)c(O)c1N=Nc1ccc(N=Nc2ccccc2)cc1 [1-3]

Row | SMILES | Gram extinction coefficient [cm^2g^−1]
4 | CCCCc1nn(C(C)(C)C)c(O)c1N=Nc1ccc(N=Nc2ccccc2)cc1 [1-1] | 62000

Same assay, conditions: n-decane solution

Row | Color of solution | SMILES
5 | yellow | CCCCc1ccc(N=Nc2ccc(N=Nc3c(CCCC)nn(C(C)(C)C)c3O)cc2)cc1 [1-2]
6 | almost no | Cc1nn(-c2ccccc2)c(O)c1N=Nc1ccc(N=Nc2ccccc2)cc1 [compound 1, reference compound]
7 | yellow | CCc1nn(C(C)(C)C)c(O)c1N=Nc1ccc(N=Nc2ccccc2)cc1 [1-3]

Row | SMILES | Color of solution
8 | CCCCc1nn(C(C)(C)C)c(O)c1N=Nc1ccc(N=Nc2ccccc2)cc1 [1-1] | yellow

Same assay, conditions: n-decane solution, wavelength range 350-800 nm

Row | Absorption maximum wavelength [nm] | SMILES
9 | 421 | CCCCc1ccc(N=Nc2ccc(N=Nc3c(CCCC)nn(C(C)(C)C)c3O)cc2)cc1 [1-2]
10 | 416 | Cc1nn(-c2ccccc2)c(O)c1N=Nc1ccc(N=Nc2ccccc2)cc1 [compound 1, reference compound]
11 | 415 | CCc1nn(C(C)(C)C)c(O)c1N=Nc1ccc(N=Nc2ccccc2)cc1 [1-3]

Row | SMILES | Absorption maximum wavelength [nm]
12 | CCCCc1nn(C(C)(C)C)c(O)c1N=Nc1ccc(N=Nc2ccccc2)cc1 [1-1] | 417

Test: Solubility of the dye in n-decane (saturated solution, 25° C., ordinary pressure)
Type: physicochemical
Conditions: from Table 1
Description: as §1, §2

Row | SMILES | Solubility compared with the comparative compound
13 | CCCCc1ccc(N=Nc2ccc(N=Nc3c(CCCC)nn(C(C)(C)C)c3O)cc2)cc1 [1-2] | higher solubility than the comparative compound
14 | CCCCc1nn(C(C)(C)C)c(O)c1N=Nc1ccc(N=Nc2ccccc2)cc1 [1-1] | higher solubility than the comparative compound
15 | CCc1nn(C(C)(C)C)c(O)c1N=Nc1ccc(N=Nc2ccccc2)cc1 [1-3] | higher solubility than the comparative compound

Same assay, conditions: saturated solution at 25° C.

Row | [Molar extinction coefficient at absorption maximum wavelength] × [molar concentration of saturated solution] [cm⁻¹] | SMILES
16 | 13000 | CCCCc1ccc(N=Nc2ccc(N=Nc3c(CCCC)nn(C(C)(C)C)c3O)cc2)cc1 [1-2]
17 | 10 | Cc1nn(-c2ccccc2)c(O)c1N=Nc1ccc(N=Nc2ccccc2)cc1 [compound 1, reference compound]
18 | 1400 | CCc1nn(C(C)(C)C)c(O)c1N=Nc1ccc(N=Nc2ccccc2)cc1 [1-3]

Row | SMILES | [Molar extinction coefficient at absorption maximum wavelength] × [molar concentration of saturated solution] [cm⁻¹]
19 | CCCCc1nn(C(C)(C)C)c(O)c1N=Nc1ccc(N=Nc2ccccc2)cc1 [1-1] | 1900

Same assay, conditions: saturated solution, 25° C., ordinary pressure, 0.1-μm filter

Row | Solubility (decane) [wt %] | SMILES
20 | 30 | CCCCc1ccc(N=Nc2ccc(N=Nc3c(CCCC)nn(C(C)(C)C)c3O)cc2)cc1 [1-2]
21 | 0.014 | Cc1nn(-c2ccccc2)c(O)c1N=Nc1ccc(N=Nc2ccccc2)cc1 [compound 1, reference compound]
22 | 3.1 | CCc1nn(C(C)(C)C)c(O)c1N=Nc1ccc(N=Nc2ccccc2)cc1 [1-3]

Row | SMILES | Solubility (decane) [wt %]
23 | CCCCc1nn(C(C)(C)C)c(O)c1N=Nc1ccc(N=Nc2ccccc2)cc1 [1-1] | 4.2
